PubChem BioAssay AID1259407 (Chemical Carcinogenesis Research Information System (CCRIS), 2018)
Active and inactive are the calls of the source. No rule for the calls is given here.

Test system: CCRIS mutagenicity, Ames/micronucleus/aberration tests
Assay: CCRIS mutagenicity studies

CCN(CC)N=O
mutagenic call (Test System: AMES SALMONELLA TYPHIMURIUM, Strain/Indicator: TA2410, Metabolic Activation: NONE, Method: HOST-MEDIATED): active; positive
mutagenic call (Test System: AMES SALMONELLA TYPHIMURIUM, Strain/Indicator: TA2678, Metabolic Activation: NONE, Method: HOST-MEDIATED): active; positive
mutagenic call (Test System: AMES SALMONELLA TYPHIMURIUM, Strain/Indicator: YG1024, Metabolic Activation: NONE, Method: PREINCUBATION): inactive; negative
mutagenic call (Test System: AMES SALMONELLA TYPHIMURIUM, Strain/Indicator: YG1024, Metabolic Activation: RAT LIVER S-9, AROCLOR, Method: PREINCUBATION): active; positive
mutagenic call (Test System: AMES SALMONELLA TYPHIMURIUM, Strain/Indicator: YG7100, Metabolic Activation: S-9, Method: PREINCUBATION): inactive; negative
mutagenic call (Test System: AMES SALMONELLA TYPHIMURIUM, Strain/Indicator: YG7104, Metabolic Activation: S-9, Method: PREINCUBATION): active; positive
mutagenic call (Test System: AMES SALMONELLA TYPHIMURIUM, Strain/Indicator: YG7104ER, Metabolic Activation: NONE, Method: STANDARD PLATE): active; positive
mutagenic call (Test System: AMES SALMONELLA TYPHIMURIUM, Strain/Indicator: YG7108-2A6-OR, Metabolic Activation: NONE, Method: PREINCUBATION): active; positive
mutagenic call (Test System: AMES SALMONELLA TYPHIMURIUM, Strain/Indicator: YG7108-2A6, Metabolic Activation: NONE, Method: PREINCUBATION): active; positive
mutagenic call (Test System: AMES SALMONELLA TYPHIMURIUM, Strain/Indicator: YG7108-PCW, Metabolic Activation: NONE, Method: PREINCUBATION): inactive; negative
mutagenic call (Test System: AMES SALMONELLA TYPHIMURIUM, Strain/Indicator: YG7108, Metabolic Activation: RAT LIVER S-9, PHENOBARBITAL AND 5,6-BENZOFLAVONE, Method: PREINCUBATION): active; positive
mutagenic call (Test System: AMES SALMONELLA TYPHIMURIUM, Strain/Indicator: YG7108, Metabolic Activation: S-9, Method: PREINCUBATION): active; positive
mutagenic call (Test System: AMES SALMONELLA TYPHIMURIUM, Strain/Indicator: YG7108ER, Metabolic Activation: NONE, Method: STANDARD PLATE): active; positive
mutagenic call (Test System: AMES SALMONELLA TYPHIMURIUM, Strain/Indicator: YG7112, Metabolic Activation: S-9, Method: PREINCUBATION): active; positive
mutagenic call (Test System: AMES SALMONELLA TYPHIMURIUM, Strain/Indicator: YG7113, Metabolic Activation: S-9, Method: PREINCUBATION): active; positive
mutagenic call (Test System: AMES SALMONELLA TYPHIMURIUM, Strain/Indicator: YG7119, Metabolic Activation: S-9, Method: PREINCUBATION): inactive; negative
mutagenic call (Test System: Ames Salmonella typhimurium, Strain/Indicator: TA98, Metabolic Activation: None, Method: Preincubation): active; positive
mutagenic call (Test System: Ames Salmonella typhimurium, Strain/Indicator: TA98, Metabolic Activation: Rat, Liver, S-9, Aroclor 1254 (4%), Method: Preincubation): active; positive
mutagenic call (Test System: Ames Salmonella typhimurium, Strain/Indicator: TA98DNP6 (Acetyltransferase deficient), Metabolic Activation: None, Method: Preincubation): inactive; negative
mutagenic call (Test System: Ames Salmonella typhimurium, Strain/Indicator: TA98DNP6 (Acetyltransferase deficient), Metabolic Activation: Rat, Liver, S-9, Aroclor 1254 (4%), Method: Preincubation): inactive; negative
mutagenic call (Test System: Ames Salmonella typhimurium, Strain/Indicator: TA98NR, Metabolic Activation: None, Method: Preincubation): inactive; negative
mutagenic call (Test System: Ames Salmonella typhimurium, Strain/Indicator: TA98NR, Metabolic Activation: Rat, Liver, S-9, Aroclor 1254 (4%), Method: Preincubation): inactive; negative
mutagenic call (Test System: Ames Salmonella typhimurium, Strain/Indicator: YG1021, Metabolic Activation: None, Method: Preincubation): inactive; negative
mutagenic call (Test System: Ames Salmonella typhimurium, Strain/Indicator: YG1021, Metabolic Activation: Rat, Liver, S-9, Aroclor 1254 (4%), Method: Preincubation): inactive; negative
mutagenic call (Test System: Ames Salmonella typhimurium, Strain/Indicator: YG1024 (Acetyltransferase overproducing), Metabolic Activation: None, Method: Preincubation): inactive; negative
mutagenic call (Test System: Ames Salmonella typhimurium, Strain/Indicator: YG1024 (Acetyltransferase overproducing), Metabolic Activation: Rat, Liver, S-9, Aroclor 1254 (4%), Method: Preincubation): active; positive
mutagenic call (Test System: Ames Salmonella typhimurium, Strain/Indicator: YG1041 (Acetyltransferase and nitroreductase overproducing), Metabolic Activation: None, Method: Preincubation): inactive; negative
mutagenic call (Test System: Ames Salmonella typhimurium, Strain/Indicator: YG1041 (Acetyltransferase and nitroreductase overproducing), Metabolic Activation: Rat, Liver, S-9, Aroclor 1254 (4%), Method: Preincubation): inactive; negative
mutagenic call (Test System: Ames Salmonella typhimurium, Strain/Indicator: YG7108pin3ERb5, Metabolic Activation: None, Method: Standard plate): active; positive
mutagenic call (Test System: CHINESE HAMSTER V-79, Strain/Indicator: V-79 (HPRT)/6-THIOGUANINE, Metabolic Activation: RAT, HEPATOCYTES): active; positive
mutagenic call (Test System: CHINESE HAMSTER V-79, Strain/Indicator: V-79 (HPRT)/6-THIOGUANINE, Metabolic Activation: RAT, HEPATOMA, H4IIE CELLS): inactive; negative
mutagenic call (Test System: CHINESE HAMSTER V-79, Strain/Indicator: V-79 (HPRT)/6-THIOGUANINE, Metabolic Activation: RAT, LIVER, S-9, AROCLOR 1254): active; positive
mutagenic call (Test System: CHINESE HAMSTER V-79, Strain/Indicator: V-79/8-AZAGUANINE, Metabolic Activation: RAT, LIVER, S-15, PHENOBARBITAL, Method: STANDARD PLATE): active; positive
mutagenic call (Test System: CHINESE HAMSTER V-79, Strain/Indicator: V-79/OUABAIN, Metabolic Activation: CELL-MEDIATED, Method: STANDARD PLATE): active; positive
mutagenic call (Test System: CHINESE HAMSTER V-79, Strain/Indicator: V-79/OUABAIN, Metabolic Activation: HAMSTER, HEPATOCYTES, Method: CELL-MEDIATED): active; positive
mutagenic call (Test System: E. COLI, Strain/Indicator: WP2 (HCR-), Metabolic Activation: RAT, LIVER, MICROSOMES, PHENOBARBITAL): active; positive
mutagenic call (Test System: E. COLI, Strain/Indicator: WP2 UVRA, Metabolic Activation: HAMSTER, LIVER, S-9, AROCLOR 1254, Method: PREINCUBATION): active; positive
mutagenic call (Test System: E. COLI, Strain/Indicator: WP2 UVRA, Metabolic Activation: HAMSTER, LIVER, S-9, AROCLOR 1254, Method: STANDARD PLATE): inactive; negative
mutagenic call (Test System: E. COLI, Strain/Indicator: WP2 UVRA, Metabolic Activation: HAMSTER, LIVER, S-9, Method: PREINCUBATION): active; positive
mutagenic call (Test System: E. COLI, Strain/Indicator: WP2 UVRA, Metabolic Activation: HAMSTER, LIVER, S-9, Method: STANDARD PLATE): inactive; negative
mutagenic call (Test System: E. COLI, Strain/Indicator: WP2 UVRA, Metabolic Activation: MOUSE, LIVER, S-9, AROCLOR 1254, Method: STANDARD PLATE): inactive; negative
mutagenic call (Test System: E. COLI, Strain/Indicator: WP2 UVRA, Metabolic Activation: MOUSE, LIVER, S-9, Method: STANDARD PLATE): inactive; negative
mutagenic call (Test System: E. COLI, Strain/Indicator: WP2 UVRA, Metabolic Activation: NONE, Method: STANDARD PLATE): inactive; negative
mutagenic call (Test System: E. COLI, Strain/Indicator: WP2 UVRA, Metabolic Activation: RAT, LIVER, S-9, Method: PREINCUBATION): inactive; negative
mutagenic call (Test System: E. COLI, Strain/Indicator: WP2 UVRA, Metabolic Activation: RAT, LIVER, S-9, Method: STANDARD PLATE): inactive; negative
mutagenic call (Test System: MOUSE LYMPHOMA, Strain/Indicator: L5178Y (TK+/TK-), Metabolic Activation: RAT, LIVER, S-9, AROCLOR 1254, Method: SUSPENSION/PLATE): active; positive
mutagenic call (Test System: UDS RAT HEPATOCYTES, Strain/Indicator: THY INCORP, Metabolic Activation: NONE, Method: LIQUID SCINTILLATION COUNTING): active; positive
mutagenic call (Test System: UDS RODENT HEPATOCYTES, Strain/Indicator: THY INCORP (NON-S-PHASE), Method: AUTORADIOGRAPHY): active; positive
